Legend:
[1] = tested on: biomarkers for myocardial infarction risk; conditions: clinical trial; cited from earlier work
[2] = tested on: synthesis of LTB4 in human whole blood; assay: Human whole blood assay (calcimycin-stimulated LTB4 synthesis); type: cell-based; conditions: Homo sapiens; read-out: Human Whole Blood LTB4 Assay for FLAP (IC50 nM)
Summary of the method: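 Steps: compound plus heparinized human whole blood, 15 min at 37° C; add calcimycin to 20 μM final; incubate another 30 min at 37° C; centrifuge at low speed and collect plasma; measure LTB4 with a homogeneous time-resolved fluorescence immunoassay.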

[3] = target: T1, recombinant human FLAP protein (Homo sapiens, UniProt P20292); assay: FLAP binding assay (Scintillation Proximity Assay, displacement of [125I]L-691,831); conditions: read-out: Human FLAP SPA Binding (IC50 nM)
T1 construct: made in house; host or cells: Sf9 insect cells (membrane fraction, 100,000 x g pellet)
T1 sequence (P20292 1-161): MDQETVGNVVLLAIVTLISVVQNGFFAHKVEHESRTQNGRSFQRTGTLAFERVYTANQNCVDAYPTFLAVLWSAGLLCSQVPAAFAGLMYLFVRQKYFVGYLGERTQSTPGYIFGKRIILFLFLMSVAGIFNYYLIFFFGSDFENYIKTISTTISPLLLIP
Summary of the method: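 Scintillation proximity displacement format: 0.08 nM iodinated MK-591 analog [125I]L-691,831 competes with test compound for human FLAP in sf9 insect-cell membranes (5 μg/well, WGA beads), 2 h with shaking, pH 7.5 Tris buffer. 10 μM cold L-691,831 defines non-specific binding.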

[4] = tested on: human glomerulonephritis; conditions: clinical trial; cited from earlier work
[5] = tested on: ApoE−/−xCD4dnTβRII mice; conditions: infusion, treated for four weeks; cited from earlier work
[6] = tested on: apoE/LDL-R double knockout mice; conditions: oral dosing, high-fat diet from 2 months of age to 6 months; cited from earlier work

IC50 [2] [nM]	IC50 [3] [nM]	Structure (SMILES)	also measured
–	–	O=C(O)[C@@H](c1ccc(OCc2ccc3ccccc3n2)cc1)C1CCCC1 [DG-031]	effect on biomarkers for myocardial infarction risk [1]: dose-dependent suppression of several biomarkers
1300	> 2000	Cn1cc(-c2coc([C@](C)(c3ccc(-c4cnc(N)nc4)nc3)C3CC3)n2)cn1 [Example 208, 5-(5-{(S)-1-Cyclopropyl-1-[4-(1-methyl-1H-pyrazol-4-yl)-oxazol-2-yl]-ethyl}-pyridin-2-yl)-pyrimidin-2-ylamine]	–
560	300	CC(C)(O)Cn1cc(-c2coc(C(C)(c3ccc(-c4cnc(N)nc4)nc3)C3CC3)n2)cn1 (stereo not drawn) [Example 209, 1-[4-(2-{1-[6-(2-Amino-pyrimidin-5-yl)-pyridin-3-yl]-1-cyclopropyl-ethyl}-oxazol-4-yl)-pyrazol-1-yl]-2-methyl-propan-2-ol]	–
530	180	CC(C)(O)Cn1cc(-c2coc([C@@](C)(c3ccc(-c4cnc(N)nc4)nc3)C3CC3)n2)cn1 [Example 210, 1-[4-(2-{(R)-1-[6-(2-Amino-pyrimidin-5-yl)-pyridin-3-yl]-1-cyclopropyl-ethyl}-oxazol-4-yl)-pyrazol-1-yl]-2-methyl-propan-2-ol]	–
> 5000	> 2000	CC(C)(O)Cn1cc(-c2coc([C@](C)(c3ccc(-c4cnc(N)nc4)nc3)C3CC3)n2)cn1 [Example 211, 1-[4-(2-{(S)-1-[6-(2-Amino-pyrimidin-5-yl)-pyridin-3-yl]-1-cyclopropyl-ethyl}-oxazol-4-yl)-pyrazol-1-yl]-2-methyl-propan-2-ol]	–
410	130	CC(C)(O)Cn1cc(-c2cnc(C(C)(c3ccc(-c4cnc(N)nc4)nc3)C3CC3)s2)cn1 (stereo not drawn) [Example 212, 1-[4-(2-{1-[6-(2-Amino-pyrimidin-5-yl)-pyridin-3-yl]-1-cyclopropyl-ethyl}-thiazol-5-yl)-pyrazol-1-yl]-2-methyl-propan-2-ol]	–
–	–	CC(C)(C)Sc1c(CC(C)(C)C(=O)O)n(Cc2ccc(Cl)cc2)c2ccc(OCc3ccc4ccccc4n3)cc12 [MK-591]	effect on proteinuria [4]: reduce proteinuria
–	–	CC(C)c1ccc2c(c1)c(SC(C)(C)C)c(CC(C)(C)C(=O)O)n2Cc1ccc(Cl)cc1 [MK-886]	decrease in plaque area in the aortic root [5]: ~40%; decrease in plaque coverage in the aorta [6]: 56%; decrease in plaque coverage in the aortic root [6]: 43%

From patent US9174980B2, “Heterocyclic compounds as inhibitors of leukotriene production” (Boehringer Ingelheim International GmbH, priority 2012, dated 2015)
